Measurements reported in patent EP0931077B1, “SUBSTITUTED BENZOCYCLOHEPTAPYRIDINE USEFUL AS INHIBITORS OF FARNESYL-PROTEIN TRANSFERASE” (SCHERING CORPORATION, priority 1996, dated 1998).

Biological target: farnesyl-protein transferase (Homo sapiens, UniProt P49354+P49356)
Assay: FPT inhibition (in vitro farnesyl protein transferase inhibition)
Assay type: biochemical

| SMILES | IC50 [nM] | other results |
| --- | --- | --- |
| O=C(NCc1cccnc1)C1CCCN1C1c2ncc(Br)cc2CCc2cc(Cl)cc(Br)c21 (single isomer, unassigned) [Example 2 Isomer B, 1-(3,10-dibromo-8-chloro-6,11-dihydro-5H-benzo[5,6]cyclohepta[1,2-b]pyridine-11-yl)-N-(3-pyridinylmethyl)-2-pyrrolidine carboxamide] | 5.2 | – |
| O=C(NCc1cccnc1)C1CCN1C1c2ccc(Cl)cc2CCc2cc(Br)cnc21 (single isomer, unassigned) [Example 3 Isomer B, 1-(3-bromo-8-chloro-6,11-dihydro-5H-benzo[5,6]cyclohepta[1,2-b]pyridine-11-yl)-N-(3-pyridinylmethyl)2-azetidine carboxamide] | – | inhibition at 0.1 µM (@0.1 µM): 17% |
| O=C(NCc1cccnc1)[C@@H]1CCCN1C1c2ccc(Cl)cc2CCc2cc(Br)cnc21 (single isomer, unassigned) [Example 1 Isomer B, 1-(3-Brorno-8-chloro-6,11-dihydro-5H-benzo[5,6]cyclohepta[1,2-b]pyridine-11-yl)-N-(3-pyridinylmethyl)2-pyrrolidine carboxamide] | 140 | – |
| O=C(NCc1cccnc1)C1CCN1C1c2ccc(Cl)cc2CCc2cc(Br)cnc21 (single isomer, unassigned) [Example 3 Isomer A, 1-(3-bromo-8-chloro-6,11-dihydro-5H-benzo[5,6]cyclohepta[1,2-b]pyridine-11-yl)-N-(3-pyridinylmethyl)2-azetidine carboxamide] | 1050 | – |
| O=C(NCc1cccnc1)[C@@H]1CCCN1C1c2ccc(Cl)cc2CCc2cc(Br)cnc21 (single isomer, unassigned) [Example 1 Isomer A, 1-(3-Brorno-8-chloro-6,11-dihydro-5H-benzo[5,6]cyclohepta[1,2-b]pyridine-11-yl)-N-(3-pyridinylmethyl)2-pyrrolidine carboxamide] | 59 | – |
| O=C(NCc1cccnc1)C1CCCN1C1c2ncc(Br)cc2CCc2cc(Cl)cc(Br)c21 (single isomer, unassigned) [Example 2 Isomer A, 1-(3,10-dibromo-8-chloro-6,11-dihydro-5H-benzo[5,6]cyclohepta[1,2-b]pyridine-11-yl)-N-(3-pyridinylmethyl)-2-pyrrolidine carboxamide] | – | inhibition at 0.3 µM (@ 0.3 µM): 15% |
